Experimental data as given in patent US8828696B2, “Use of Penicillin G Procaine as a selective antimicrobial agent in the production of alcohol by fermentation” (Lallemand Specialites, Inc, priority 2008, dated 2014).

Legend:
[1] = test system: Lactobacillus fermentum; experiment: Bacterial inhibition test; type: cell-based; parameters: key: successful test corresponding to no growth is represented as (=); barely discernable growth is represented as (±); easily noticeable bacterial growth is represented as (+)
Description: (§1) To directly measure the efficacy of Penicillin G Procaine and Penicillin G Potassium a bacterial inhibition test was designed using industrial isolates and chosen ATCC strains. The inhibition testing was spread over 0.1 ppm to 5.0 ppm for the Lactobacillus fermentum and 1.0 ppm to 5.0 ppm for Lactobacillus brevis species of bacteria due to the lack of response of Lactobacillus brevis at lower concentrations. […] The strains used were two isolates of Lactobacillus fermentum and 2 isolates of Lactobacillus brevis. The Lactobacillus fermentum series contained both an industry derived isolate Ind 1 and an ATCC strain while the Lactobacillus brevis series comprised of two isolates, Ind 1 and Ind 43 derived from the ethanol plants. The inhibition test plates were set in triplicate and read at 12 hour intervals up to 48 hours of test endpoint. The results below represent the mode average of the outcome from the triplicate inhibitory test sets for each trial. Table 11 lists the Lactobacillus fermentum and the Lactobacillus brevis results of the inhibition testing as follows: successful test corresponding to no growth is represented as (=), barely discernable growth is represented as (±) and easily noticeable bacterial growth is represented as (+). The set of control tests depict (=) control as just broth and (+) control as just broth with bacteria but without any antibiotic.
(§2) The trial was set up as follows:
(§3) • 1. Weigh out 0.1 g of each sample to be tested into a 15 ml centrifuge tube. • 2. Dissolve sample into 10 ml sterile water. […] Add antibiotic to clean tube, add 2 ml water. • b. Vortex, if antibiotic goes into solution add water for final volume of 10 ml. • c. […] Vortex until all material is in solution. • 3. Vortex the solutions to make sure that they are well mixed. • 4. Filter the solutions through a 0.2 μm syringe filter into a second labeled sterile centrifuge tube. • 5. Add antibiotic solution to MRS Broth for a final volume of 10 ml at the test concentration for each antibiotic. • 6. Mix organism solutions and add 2 μl to each of 3 wells of a 24 well plate. If tubes are used add the 2 μl to each of three tubes for each antibiotic. • 7. Transfer 1 ml of the antibiotic-broth solution to each well containing bacteria. • 8. Recap remaining antibiotic solution and return the tube to the tube rack. This tube will become the negative control for each dilution created. • 9. Add four μl of each bacterial culture to another set of wells and add […] of broth without antibiotics. These wells will be the positive controls. • 10. Incubate plates and tubes at 33 C for 48 hours, examining all samples at 24 hours for growth. Any turbidity detected should be a result of bacterial growth.

[2] = test system: Lactobacillus brevis; experiment: Bacterial inhibition test; type: cell-based; parameters: key to bacterial growth in inhibition test: successful test corresponding to no growth is represented as (=); barely discernable growth is represented as (±); easily noticeable bacterial growth is represented as (+)
Description: as §1, §2, §3

CC1(C)S[C@@H]2[C@H](NC(=O)Cc3ccccc3)C(=O)N2[C@H]1C(=O)[O-].[K+] [Penicillin G Potassium]
bacterial growth in inhibition test ([1]; ATCC L. fermentum, 0.1 ppm, Inc Time 12): = | bacterial growth in inhibition test ([1]; ATCC L. fermentum, 0.1 ppm, Inc Time 24): = | bacterial growth in inhibition test ([1]; ATCC L. fermentum, 0.1 ppm, Inc Time 36): ± | bacterial growth in inhibition test ([1]; ATCC L. fermentum, 0.1 ppm, Inc Time 48): ± | bacterial growth in inhibition test ([1]; ATCC L. fermentum, 0.3 ppm, Inc Time 12): = | bacterial growth in inhibition test ([1]; ATCC L. fermentum, 0.3 ppm, Inc Time 24): = | bacterial growth in inhibition test ([1]; ATCC L. fermentum, 0.3 ppm, Inc Time 36): = | bacterial growth in inhibition test ([1]; ATCC L. fermentum, 0.3 ppm, Inc Time 48): = | bacterial growth in inhibition test ([1]; ATCC L. fermentum, 0.5 ppm, Inc Time 12): = | bacterial growth in inhibition test ([1]; ATCC L. fermentum, 0.5 ppm, Inc Time 24): = | bacterial growth in inhibition test ([1]; ATCC L. fermentum, 0.5 ppm, Inc Time 36): = | bacterial growth in inhibition test ([1]; ATCC L. fermentum, 0.5 ppm, Inc Time 48): = | bacterial growth in inhibition test ([1]; ATCC L. fermentum, 1 ppm, Inc Time 12): = | bacterial growth in inhibition test ([1]; ATCC L. fermentum, 1 ppm, Inc Time 24): = | bacterial growth in inhibition test ([1]; ATCC L. fermentum, 1 ppm, Inc Time 36): = | bacterial growth in inhibition test ([1]; ATCC L. fermentum, 1 ppm, Inc Time 48): = | bacterial growth in inhibition test ([1]; ATCC L. fermentum, 5 ppm, Inc Time 12): = | bacterial growth in inhibition test ([1]; ATCC L. fermentum, 5 ppm, Inc Time 24): = | bacterial growth in inhibition test ([1]; ATCC L. fermentum, 5 ppm, Inc Time 36): = | bacterial growth in inhibition test ([1]; ATCC L. fermentum, 5 ppm, Inc Time 48): = | bacterial growth in inhibition test ([1]; Ind 1 L. fermentum, 0.1 ppm, Inc Time 12): = | bacterial growth in inhibition test ([1]; Ind 1 L. fermentum, 0.1 ppm, Inc Time 24): ± | bacterial growth in inhibition test ([1]; Ind 1 L. fermentum, 0.1 ppm, Inc Time 36): ± | bacterial growth in inhibition test ([1]; Ind 1 L. fermentum, 0.1 ppm, Inc Time 48): ± | bacterial growth in inhibition test ([1]; Ind 1 L. fermentum, 0.3 ppm, Inc Time 12): = | bacterial growth in inhibition test ([1]; Ind 1 L. fermentum, 0.3 ppm, Inc Time 24): = | bacterial growth in inhibition test ([1]; Ind 1 L. fermentum, 0.3 ppm, Inc Time 36): ± | bacterial growth in inhibition test ([1]; Ind 1 L. fermentum, 0.3 ppm, Inc Time 48): ± | bacterial growth in inhibition test ([1]; Ind 1 L. fermentum, 0.5 ppm, Inc Time 12): = | bacterial growth in inhibition test ([1]; Ind 1 L. fermentum, 0.5 ppm, Inc Time 24): = | bacterial growth in inhibition test ([1]; Ind 1 L. fermentum, 0.5 ppm, Inc Time 36): = | bacterial growth in inhibition test ([1]; Ind 1 L. fermentum, 0.5 ppm, Inc Time 48): = | bacterial growth in inhibition test ([1]; Ind 1 L. fermentum, 1.0 ppm, Inc Time 12): = | bacterial growth in inhibition test ([1]; Ind 1 L. fermentum, 1.0 ppm, Inc Time 24): = | bacterial growth in inhibition test ([1]; Ind 1 L. fermentum, 1.0 ppm, Inc Time 36): = | bacterial growth in inhibition test ([1]; Ind 1 L. fermentum, 1.0 ppm, Inc Time 48): = | bacterial growth in inhibition test ([1]; Ind 1 L. fermentum, 5.0 ppm, Inc Time 12): = | bacterial growth in inhibition test ([1]; Ind 1 L. fermentum, 5.0 ppm, Inc Time 24): = | bacterial growth in inhibition test ([1]; Ind 1 L. fermentum, 5.0 ppm, Inc Time 36): = | bacterial growth in inhibition test ([1]; Ind 1 L. fermentum, 5.0 ppm, Inc Time 48): = | bacterial growth in inhibition test ([2]; Ind 1 L. brevis, 1 ppm, Inc Time 12): ± | bacterial growth in inhibition test ([2]; Ind 1 L. brevis, 1 ppm, Inc Time 24): + | bacterial growth in inhibition test ([2]; Ind 1 L. brevis, 1 ppm, Inc Time 36): + | bacterial growth in inhibition test ([2]; Ind 1 L. brevis, 1 ppm, Inc Time 48): + | bacterial growth in inhibition test ([2]; Ind 1 L. brevis, 2 ppm, Inc Time 12): ± | bacterial growth in inhibition test ([2]; Ind 1 L. brevis, 2 ppm, Inc Time 24): + | bacterial growth in inhibition test ([2]; Ind 1 L. brevis, 2 ppm, Inc Time 36): + | bacterial growth in inhibition test ([2]; Ind 1 L. brevis, 2 ppm, Inc Time 48): + | bacterial growth in inhibition test ([2]; Ind 1 L. brevis, 3 ppm, Inc Time 12): ± | bacterial growth in inhibition test ([2]; Ind 1 L. brevis, 3 ppm, Inc Time 24): + | bacterial growth in inhibition test ([2]; Ind 1 L. brevis, 3 ppm, Inc Time 36): + | bacterial growth in inhibition test ([2]; Ind 1 L. brevis, 3 ppm, Inc Time 48): + | bacterial growth in inhibition test ([2]; Ind 1 L. brevis, 4 ppm, Inc Time 12): ± | bacterial growth in inhibition test ([2]; Ind 1 L. brevis, 4 ppm, Inc Time 24): + | bacterial growth in inhibition test ([2]; Ind 1 L. brevis, 4 ppm, Inc Time 36): + | bacterial growth in inhibition test ([2]; Ind 1 L. brevis, 4 ppm, Inc Time 48): + | bacterial growth in inhibition test ([2]; Ind 1 L. brevis, 5 ppm, Inc Time 12): = | bacterial growth in inhibition test ([2]; Ind 1 L. brevis, 5 ppm, Inc Time 24): = | bacterial growth in inhibition test ([2]; Ind 1 L. brevis, 5 ppm, Inc Time 36): ± | bacterial growth in inhibition test ([2]; Ind 1 L. brevis, 5 ppm, Inc Time 48): + | bacterial growth in inhibition test ([2]; Ind 43 L. brevis, 1 ppm, Inc Time 12): = | bacterial growth in inhibition test ([2]; Ind 43 L. brevis, 1 ppm, Inc Time 24): + | bacterial growth in inhibition test ([2]; Ind 43 L. brevis, 1 ppm, Inc Time 36): + | bacterial growth in inhibition test ([2]; Ind 43 L. brevis, 1 ppm, Inc Time 48): + | bacterial growth in inhibition test ([2]; Ind 43 L. brevis, 2 ppm, Inc Time 12): = | bacterial growth in inhibition test ([2]; Ind 43 L. brevis, 2 ppm, Inc Time 24): + | bacterial growth in inhibition test ([2]; Ind 43 L. brevis, 2 ppm, Inc Time 36): + | bacterial growth in inhibition test ([2]; Ind 43 L. brevis, 2 ppm, Inc Time 48): + | bacterial growth in inhibition test ([2]; Ind 43 L. brevis, 3 ppm, Inc Time 12): = | bacterial growth in inhibition test ([2]; Ind 43 L. brevis, 3 ppm, Inc Time 24): + | bacterial growth in inhibition test ([2]; Ind 43 L. brevis, 3 ppm, Inc Time 36): + | bacterial growth in inhibition test ([2]; Ind 43 L. brevis, 3 ppm, Inc Time 48): + | bacterial growth in inhibition test ([2]; Ind 43 L. brevis, 4 ppm, Inc Time 12): = | bacterial growth in inhibition test ([2]; Ind 43 L. brevis, 4 ppm, Inc Time 24): ± | bacterial growth in inhibition test ([2]; Ind 43 L. brevis, 4 ppm, Inc Time 36): ± | bacterial growth in inhibition test ([2]; Ind 43 L. brevis, 4 ppm, Inc Time 48): + | bacterial growth in inhibition test ([2]; Ind 43 L. brevis, 5 ppm, Inc Time 12): = | bacterial growth in inhibition test ([2]; Ind 43 L. brevis, 5 ppm, Inc Time 24): ± | bacterial growth in inhibition test ([2]; Ind 43 L. brevis, 5 ppm, Inc Time 36): ± | bacterial growth in inhibition test ([2]; Ind 43 L. brevis, 5 ppm, Inc Time 48): +
